According to paper PMC3545186 (Biochemical Pharmacology, 2013):
“And” between values parts separate entries of the source, which are not always exact repeats. Equal values may be shown once. Read-outs that look alike come from different tables or passages of the source. Numbered stars: 1 amine (or outer) side, 2 acyl side, 3 side chain; on linkers, the order of the positions; unused ones are H or OH. Bridge positions count the residues as written; N and C are the ends. Square brackets hold non-standard residues; d marks the D form. Peptide text beside a SMILES is read from it. I, II: the chains in the order shown. Actinocin(9to1) = Cc1c2oc3c(C)ccc(C(=O)[*:1])c3nc-2c(C(=O)[*:2])c(N)c1=O; NMeV = CN[C@H](C(=O)O)C(C)C; Sar = CNCC(=O)O

Assays:
MDCKII-ABCB1 cells [1] = assay: Intracellular accumulation of Act D; assay type: in vitro ADME, canine
MDCKII-ABCG2 cells [2] = assay: Cellular efflux of Act D after 4 h uptake; assay type: in vitro ADME, canine; details: MDCKII-ABCG2, not statistically significant
MDCKII-WT cells [3] = assay: Fluorescence competition assay with ABCB1 substrate doxorubicin; assay type: cell-based, canine; details: 1 h pre-incubation, doxorubicin 10 μM 1 h
in vivo = assay type: in vivo, mice; details: for Cmax / Tmax / half-life: mouse, in vivo, iv
[4] = paediatric patient population; cited from earlier work
MDCKII-WT cells [5] = assay: Intracellular accumulation of Act D; assay type: in vitro ADME, canine; details: 0.01 μM Act D, 12 h
MDCKII-WT cells [6] = assay: Growth inhibition; assay type: cell-based, canine
MDCKII-ABCC1 cells [7] = assay: Intracellular accumulation of Act D; assay type: in vitro ADME, canine
MDCKII-ABCB1 cells [8] = assay: Fluorescence competition assay with ABCB1 substrate doxorubicin; assay type: cell-based, canine; details: MDCKII-ABCB1, 1 h pre-incubation, doxorubicin 10 μM 1 h
MDCKII-ABCG2 cells [9] = assay: Growth inhibition; assay type: cell-based, canine; details: MDCKII-ABCG2, Act D alone or with KO143, p = 0.74
ABCG2 (BCRP) = assay: Growth inhibition; assay type: cell-based, canine; details: dog, MDCKII cells transfected with human ABCG2 (BCRP)
MDCKII-ABCC2 cells [10] = assay: Intracellular accumulation of Act D; assay type: in vitro ADME, canine
MDCKII-ABCC1 cells [11] = assay: Cellular efflux of Act D after 4 h uptake; assay type: in vitro ADME, canine; details: MDCKII-ABCC1, after 4 h with 0.1 μM Act D
[12] = assay type: in vivo, mice; details: for Brain peak area / Kidney concentration / Liver concentration: per gram of tissue
MDCKII-ABCC2 cells [13] = assay: Growth inhibition; assay type: cell-based, canine; details: MDCKII-ABCC2, MK571 25 μM, p = 0.23
[14] = Act D treatment; cited from earlier work
MDCKII-ABCB1 cells [15] = assay: Cellular efflux of Act D after 4 h uptake; assay type: in vitro ADME, canine; details: MDCKII-ABCB1, after 4 h with 0.1 μM Act D
MDCKII-ABCC2 cells [16] = assay: Cellular efflux of Act D after 4 h uptake; assay type: in vitro ADME, canine
[17] = Abcb1a/1b−/− knockout (parental strain FVB), 0.5 mg/kg
[18] = Abcb1a/1b−/− mice, 0.25 h, 0.5 mg/kg i.v.
[19] = Abcb1a/1b−/− mice, 2 h, 0.5 mg/kg i.v.
[20] = Abcb1a/1b−/− mice, 6 h, 0.5 mg/kg i.v.
[21] = Abcc2−/− knockout (parental strain FVB), 0.5 mg/kg
[22] = Abcc2−/− mice, 0.5 mg/kg i.v., 0.5 mg/kg
[23] = Abcc2−/− mice, 0.25 h, 0.5 mg/kg i.v.
[24] = Abcc2−/− mice, 0.5 h, 0.5 mg/kg i.v.
[25] = Abcc2−/− mice, 2 h, 0.5 mg/kg i.v.
[26] = Abcc2−/− mice, 6 h, 0.5 mg/kg i.v.
[27] = WT mice, 0.5 mg/kg i.v., 0.5 mg/kg
[28] = WT mice, 0.25 h, 0.5 mg/kg i.v.
[29] = Abcb1a/1b−/− mice, 0.5 mg/kg i.v.
[30] = Abcb1a/1b−/− mice, 0.5 h, 0.5 mg/kg i.v.

## Cc1c2oc3c(C)ccc(C(=O)N[C@@H]4C(=O)N[C@H](C(C)C)C(=O)N5CCC[C@H]5C(=O)N(C)CC(=O)N(C)[C@@H](C(C)C)C(=O)O[C@@H]4C)c3nc-2c(C(=O)N[C@@H]2C(=O)N[C@H](C(C)C)C(=O)N3CCC[C@H]3C(=O)N(C)CC(=O)N(C)[C@@H](C(C)C)C(=O)O[C@@H]2C)c(N)c1=O [Act D, actinomycin D] (I: T[dV]P[Sar][NMeV] / II: T[dV]P[Sar][NMeV]; ester I:1-I:C, II:1-II:C; linker I:N-II:N via Actinocin(9to1))
MDCKII-ABCB1 cells [1]; MDCKII-ABCB1, 0.01 μM Act D, 12 h
  intracellular accumulation of Act D: 0.1 nM
MDCKII-ABCB1 cells [1]; MDCKII-ABCB1, 10 μM verapamil, 0.1 μM Act D, 4 h
  increase in intracellular Act D with verapamil: 7.9 fold
MDCKII-ABCB1 cells [1]; MDCKII-ABCB1 vs MDCKII-WT, 0.01 μM Act D, 12 h
  lower accumulation of Act D compared to parental cell line: 9.8 fold
MDCKII-ABCG2 cells [2]
  higher intracellular Act D after 2 h: 1.5 fold
MDCKII-WT cells [3]
  Act D concentration at which intracellular doxorubicin levels plateaued: 0.1 to 1 µM
In vivo; 0.5 mg/kg i.v.
  greater plasma AUC0–∞ in Abcb1a/1b−/− mice compared to WT: 1.9 fold
  higher plasma AUC0–6 h in Abcb1a/1b−/− mice compared to WT: 1.6 fold
  higher plasma Cmax at 15 min in Abcb1a/1b−/− mice compared to WT: 1.4 fold
  higher plasma concentration at 30 min in Abcb1a/1b−/− mice compared to WT: 1.7 fold
  longer elimination half-life (t1/2) in Abcb1a/1b−/− mice compared to WT: 1.5 fold
In vivo; [17]
  Cmax: 96.7 ± 12 ng/mL
  Tmax: 0.25 h
  half-life: 2.78 h
In vivo; Abcb1a/1b−/− mice, 0.5 mg/kg i.v., 0.5 mg/kg
  plasma AUC0–∞: 322.6 ng·h/mL
In vivo; [18]
  Act D plasma concentration: 96.7 ± 12.0 µg/L
In vivo; Abcb1a/1b−/− mice, 0.5 h, 0.5 mg/kg i.v., 0.5 mg/kg
  Act D plasma concentration: 71.6 µg/L and 71.6 ± 12.3 µg/L
In vivo; [19]
  Act D plasma concentration: 35.8 ± 2.01 µg/L
In vivo; [20]
  Act D plasma concentration: 20.1 ± 0.78 µg/L
In vivo; Abcc2−/− knockout (FVB background), 0.5 mg/kg
  half-life: 2.46 h
In vivo; [21]
  Cmax: 48 ± 11.1 ng/mL
  Tmax: 0.25 h
In vivo; [22]
  plasma AUC0–6 h: 114.8 ng·h/mL
  plasma AUC0–∞: 145.2 ng·h/mL
In vivo; [23]
  Act D plasma concentration: 48.0 ± 11.1 µg/L
In vivo; [24]
  Act D plasma concentration: 37.7 ± 6.07 µg/L
In vivo; [25]
  Act D plasma concentration: 16.3 ± 3.73 µg/L
In vivo; [26]
  Act D plasma concentration: 8.6 ± 0.96 µg/L
In vivo; FVB (wild type), 0.5 mg/kg
  Cmax: 68.6 ± 15.6 ng/mL
  Tmax: 0.25 h
  half-life: 1.92 h
In vivo; [27]
  plasma AUC0–6 h: 151.5 ng·h/mL
  plasma AUC0–∞: 168.1 ng·h/mL
In vivo; [28]
  Act D plasma concentration: 68.6 ± 15.6 µg/L
In vivo; WT mice, 0.5 h, 0.5 mg/kg i.v., 0.5 mg/kg
  Act D plasma concentration: 43.3 µg/L and 43.3 ± 7.68 µg/L
In vivo; WT mice, 2 h, 0.5 mg/kg i.v.
  Act D plasma concentration: 25.8 ± 4.78 µg/L
In vivo; WT mice, 6 h, 0.5 mg/kg i.v.
  Act D plasma concentration: 6.0 ± 0.65 µg/L
[4]
  range in AUC0–6 h between patients: > 4 fold
MDCKII-WT cells [5]
  intracellular accumulation of Act D: 0.98 nM
MDCKII-WT cells [6]; MK571 25 μM
  increase in sensitivity to Act D with MK571: 3 fold
MDCKII-WT cells [6]; verapamil 1 μM, 72 h
  reduction in GI50 with verapamil: 3 fold
MDCKII-ABCC1 cells [7]; MDCKII-ABCC1, not statistically significant
  increased accumulation with MK571 compared to absence of inhibitor: 1.2 fold
MDCKII-ABCC1 cells [7]; MDCKII-ABCC1 vs MDCKII-WT, 12 h
  lower accumulation of Act D compared to parental cell line: 2.5 fold and 2.45 fold
MDCKII-ABCB1 cells [8]
  Act D concentration required to maximally inhibit doxorubicin efflux: 1 to 25 µM
MDCKII-ABCG2 cells [9]
  difference in sensitivity vs parental cell line: No difference in sensitivity
ABCG2 (BCRP)
  GI50 at 72 h: 14 nM
MDCKII-ABCC2 cells [10]; MDCKII-ABCC2, not statistically significant
  increased accumulation with MK571 compared to absence of inhibitor: 1.4 fold
MDCKII-ABCC2 cells [10]; MDCKII-ABCC2 vs MDCKII-WT, 12 h
  lower accumulation of Act D compared to parental cell line: 3.5 fold
MDCKII-ABCC1 cells [11]
  reduction in intracellular Act D over 2 h after drug removal: 1.9 fold
[12]; 0.5 mg/kg i.v.
  higher brain AUC0–6 h in Abcb1a/1b−/− mice compared to WT: 2.3 fold
  higher brain AUC0–6 h in Abcc2−/− mice compared to WT: 1.3 fold
[12]; [29]
  Brain AUC0–6 h (peak area): 6802 pa/g h
  Brain Cmax (peak area): 1420 ± 521 pa
  Kidney AUC0–6 h: 35,381 μg/L h
  Kidney AUC0–∞: 46,701 μg/L h
  Kidney Cmax: 13,207 ± 1025 μg/L
  Liver AUC0–6 h: 4616 ng·h/mL
  Liver AUC0–∞: 6594 ng·h/mL
  Liver Cmax: 2323 ± 239 ng/mL
[12]; [18]
  Brain peak area: 1134 ± 635 pa
  Kidney concentration: 13,207 ± 1025 μg/L
  Liver concentration: 2323 ± 239 µg/L
[12]; [30]
  Brain peak area: 1420 ± 521 pa
  Kidney concentration: 13,163 ± 2521 μg/L
  Liver concentration: 1367 ± 133 µg/L
[12]; [19]
  Brain peak area: 912.7 ± 461 pa
  Kidney concentration: 5327 ± 1257 µg/L
  Liver concentration: 737 ± 172 µg/L
[12]; [20]
  Brain peak area: 1383 ± 439 pa
  Kidney concentration: 2957 ± 872 µg/L
  Liver concentration: 407 ± 9 µg/L
[12]; Abcc2−/− mice, 0.5 mg/kg i.v.
  Brain AUC0–6 h (peak area): 3785 pa/g h
  Brain Cmax (peak area): 1039 ± 181 pa
  Kidney AUC0–6 h: 33,079 μg/L h
  Kidney AUC0–∞: 48,799 μg/L h
  Kidney Cmax: 13,107 ± 2318 μg/L
  Liver AUC0–6 h: 4445 ng·h/mL
  Liver AUC0–∞: 5516 ng·h/mL
  Liver Cmax: 1540 ± 356 ng/mL
[12]; [23]
  Brain peak area: 972 ± 455 pa
  Kidney concentration: 13,107 ± 2318 μg/L
  Liver concentration: 1317 ± 302 µg/L
[12]; [24]
  Brain peak area: 1039 ± 181 pa
  Kidney concentration: 10,593 ± 944 μg/L
  Liver concentration: 1540 ± 356 µg/L
[12]; [25]
  Brain peak area: 424.3 ± 120 pa
  Kidney concentration: 4987 ± 161 µg/L
  Liver concentration: 787 ± 99 µg/L
[12]; [26]
  Brain peak area: 733 ± 470 pa
  Kidney concentration: 3410 ± 527 µg/L
  Liver concentration: 303 ± 128 µg/L
[12]; WT mice, 0.5 mg/kg i.v.
  Brain AUC0–6 h (peak area): 2943 pa/g h
  Brain Cmax (peak area): 1071 ± 217 pa
  Kidney AUC0–6 h: 29,552 μg/L h
  Kidney AUC0–∞: 35,754 μg/L h
  Kidney Cmax: 13,323 ± 3960 μg/L
  Liver AUC0–6 h: 4473 ng·h/mL
  Liver AUC0–∞: 5387 ng·h/mL
  Liver Cmax: 1810 ± 155 ng/mL
[12]; [28]
  Brain peak area: 1071 ± 217 pa
  Kidney concentration: 13,323 ± 3960 μg/L
  Liver concentration: 1810 ± 155 µg/L
[12]; WT mice, 0.5 h, 0.5 mg/kg i.v.
  Brain peak area: 775.3 ± 127 pa
  Kidney concentration: 10,713 ± 2498 μg/L
  Liver concentration: 1593 ± 167 µg/L
[12]; WT mice, 2 h, 0.5 mg/kg i.v.
  Brain peak area: 501 ± 28.9 pa
  Kidney concentration: 4693 ± 415 µg/L
  Liver concentration: 747 ± 165 µg/L
[12]; WT mice, 6 h, 0.5 mg/kg i.v.
  Brain peak area: 309 ± 156 pa
  Kidney concentration: 1970 ± 150 µg/L
  Liver concentration: 287 ± 40 µg/L
[12]; irrespective of transporter knockout genotype
  Act D accumulation over 6 h in the kidneys higher than the liver: 6.6- to 7.7 fold
MDCKII-ABCC2 cells [13]
  effect of MK571 on sensitivity to Act D: no effect
[14]
  incidence of liver toxicities: 1.7–13.5 % of cases
MDCKII-ABCB1 cells [15]
  reduction in intracellular Act D over 2 h after drug removal: 5.5 fold
MDCKII-ABCC2 cells [16]; MDCKII-ABCC2, after 4 h with 0.1 μM Act D
  reduction in intracellular Act D over 2 h after drug removal: 2.1 fold
MDCKII-ABCC2 cells [16]; MDCKII-ABCC2, compared to parental cell line
  reduction in intracellular Act D over 1 h after drug removal: 1.8 fold
